pEC50: −log10 of the molar value.

The target of the assay is T1, recombinant human mGluR2 (Homo sapiens, UniProt Q14416).
T1 construct: expressed in transfected cells
T1 sequence (Q14416 19-872): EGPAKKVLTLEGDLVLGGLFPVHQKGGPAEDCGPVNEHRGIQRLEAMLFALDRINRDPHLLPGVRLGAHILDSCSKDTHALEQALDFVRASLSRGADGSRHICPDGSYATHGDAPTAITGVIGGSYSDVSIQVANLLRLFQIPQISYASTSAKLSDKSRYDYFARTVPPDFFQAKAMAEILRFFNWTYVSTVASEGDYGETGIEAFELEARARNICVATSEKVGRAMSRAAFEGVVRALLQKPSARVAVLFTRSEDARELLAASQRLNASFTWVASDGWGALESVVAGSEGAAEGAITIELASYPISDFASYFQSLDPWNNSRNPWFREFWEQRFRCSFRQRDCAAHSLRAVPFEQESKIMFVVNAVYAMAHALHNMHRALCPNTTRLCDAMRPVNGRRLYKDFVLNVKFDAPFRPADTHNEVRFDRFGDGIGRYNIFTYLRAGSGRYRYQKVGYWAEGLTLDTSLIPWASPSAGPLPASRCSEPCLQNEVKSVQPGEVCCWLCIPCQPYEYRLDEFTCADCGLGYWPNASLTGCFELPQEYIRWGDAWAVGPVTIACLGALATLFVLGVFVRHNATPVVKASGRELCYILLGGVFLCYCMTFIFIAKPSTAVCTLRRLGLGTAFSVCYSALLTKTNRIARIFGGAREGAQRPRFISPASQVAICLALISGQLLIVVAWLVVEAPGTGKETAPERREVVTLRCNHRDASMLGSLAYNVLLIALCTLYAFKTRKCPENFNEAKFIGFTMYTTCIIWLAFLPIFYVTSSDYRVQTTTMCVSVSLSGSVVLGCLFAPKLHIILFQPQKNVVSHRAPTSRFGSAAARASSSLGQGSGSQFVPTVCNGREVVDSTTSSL
The assay can be described thus: FLIPR Ca2+ mobilization assay, potentiation of glutamate response. Format: cell-based. Conditions: potentiation after EC20 glutamate (900 nM); CHO dhfr- cells expressing human mGluR2 and Gα16; read-out: Representative FLIPR EC50 Values. On the procedure: Inhibition constants are determined as follows. The compounds of the present invention may be tested in a […] (FLIPR) based assay. This assay is a common functional assay to monitor Ca^2+ mobilization in whole cells expressing recombinant receptor coupled with a promiscuous G-protein. CHO dhfr-cells stably expressing recombinant human mGluR2 and Gα16 loaded with Fluo-4 AM (Invitrogen, Carlsbad Calif.) are treated with dose responses of compounds and the Ca^2+ response is monitored on a FLIPR384 (Molecular Devices, Sunnydale Calif.) for agonist activity. The potentiation response is monitored after a subsequent addition of an EC20 concentration of glutamate (900 nM). The maximum calcium response at each concentration of compound for agonist or potentiation are plotted as dose responses and the curves are fitted with a four parameters logistic equation giving EC50 and Hill coefficient using the iterative non linear curve fitting software program.
Turning to `CC(C)(C)c1ccc(OCC2Cn3c(nc4cccnc43)O2)cc1` (racemic) [Example 2-16, (RS)-2-[(4-tert-butylphenoxy)methyl]-2,3-dihydro[1,3]oxazolo[2′,3′:2,3]imidazo[4,5-b]pyridine], the pEC50 was 6.58.

Turning to `FC(F)(F)c1ccc(OC[C@@H]2Cn3c(nc4ccccc43)O2)cn1` [Example 1-21, (2S)-2-({[6-(trifluoromethyl)yridine-3-yl]oxy}methyl)-2,3-dihydro[1,3]oxazolo[3,2-a]benzimidazole], the pEC50 was 6.29.

Regarding `CC(C)(C)c1cc(OC[C@@H]2Cn3c(nc4cc(C#N)ccc43)O2)ccn1` [Example 1-12, (2S)-2-{[(2-tert-butylpyridin-4-yl)oxy]methyl}-2,3-dihydro[1,3]oxazolo[3,2-a]benzimidazole-7-carbonitrile], the negative logarithm of the EC50 (pEC50) was 6.69.

For the molecule `CC(C)(C)c1ccc(OC[C@@H]2Cn3c(nc4cc(C#N)ccc43)O2)cn1` [Example 1-6, (2S)-2-{[(6-tert-butylpyridin-3-yl)oxy]methyl}-2,3-dihydro[1,3]oxazolo[3,2-a]benzimidazole-7-carbonitrile], the negative logarithm of the EC50 (pEC50) is 7.55.

As to `CC(C)(C)c1ccc(OC[C@@H]2Cn3c(nc4cc(F)c(F)cc43)O2)cn1` [Example 1-17, (2S)-2-{[(6-tert-bulylpyridin-3-yl)oxy]methyl}-6,7-difluoro-2,3-dihydro[1,3]oxazolo[3,2-a]benzimidazole], the negative-log EC50 (pEC50) was 7.24.

As to “(2S)-2-{[4-(2,2,2-trifluoro-1,1-dimethylethyl)phenoxy]methyl}-2,3-dihydro[1,3]oxazolo[3′,2′:1,2]imidazo[4,5-c]pyridine [Example 2-8]”, the pEC50 was 7.68.

These data come from patent US20110124661A1, “OXAZOLOBENZIMIDAZOLE DERIVATIVES” (MERCK SHARP & DOHME CORP., priority 2008, published 2011).
